Measured values reported in the supplement of paper PMC10307832.

Columns and labels:
Experiment in all cases: relative viability (nuclei count vs DMSO), 5 days (fraction); higher = more cells survive
Everolimus + Navitoclax = compound: CO[C@H]1C[C@@H]2CC[C@@H](C)[C@@](O)(O2)C(=O)C(=O)N2CCCC[C@H]2C(=O)O[C@H]([C@H](C)C[C@@H]2CC[C@@H](OCCO)[C@H](OC)C2)CC(=O)[C@H](C)/C=C(\C)[C@@H](O)[C@@H](OC)C(=O)[C@H](C)C[C@H](C)/C=C/C=C/C=C/1C [Everolimus] + CC1(C)CCC(c2ccc(Cl)cc2)=C(CN2CCN(c3ccc(C(=O)NS(=O)(=O)c4ccc(N[C@H](CCN5CCOCC5)CSc5ccccc5)c(S(=O)(=O)C(F)(F)F)c4)cc3)CC2)C1 [Navitoclax] (partner 0.5 µM)
Summary of the method: (§1)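 One day after seeding in 1536-well plates, lung cancer cell lines were dosed by pin tool. Dosing was either single-drug or a fixed anchor-drug dose plus five library-drug doses (not always all listed) in √10 steps. After 5 days, nuclei were stained in one fix-and-stain step and counted on 4× images, and relative viability is the nuclei count of treated wells over that of vehicle wells, given as the median of duplicate plates.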

Everolimus + Luminespib = compound: CO[C@H]1C[C@@H]2CC[C@@H](C)[C@@](O)(O2)C(=O)C(=O)N2CCCC[C@H]2C(=O)O[C@H]([C@H](C)C[C@@H]2CC[C@@H](OCCO)[C@H](OC)C2)CC(=O)[C@H](C)/C=C(\C)[C@@H](O)[C@@H](OC)C(=O)[C@H](C)C[C@H](C)/C=C/C=C/C=C/1C [Everolimus] + CCNC(=O)c1noc(-c2cc(C(C)C)c(O)cc2O)c1-c1ccc(CN2CCOCC2)cc1 [Luminespib] (partner 0.01 µM)
Summary of the method: as §1

Everolimus + Foretinib = compound: CO[C@H]1C[C@@H]2CC[C@@H](C)[C@@](O)(O2)C(=O)C(=O)N2CCCC[C@H]2C(=O)O[C@H]([C@H](C)C[C@@H]2CC[C@@H](OCCO)[C@H](OC)C2)CC(=O)[C@H](C)/C=C(\C)[C@@H](O)[C@@H](OC)C(=O)[C@H](C)C[C@H](C)/C=C/C=C/C=C/1C [Everolimus] + COc1cc2c(Oc3ccc(NC(=O)C4(C(=O)Nc5ccc(F)cc5)CC4)cc3F)ccnc2cc1OCCCN1CCOCC1 [Foretinib] (partner 0.25 µM)
Summary of the method: as §1

Everolimus + Linsitinib = compound: CO[C@H]1C[C@@H]2CC[C@@H](C)[C@@](O)(O2)C(=O)C(=O)N2CCCC[C@H]2C(=O)O[C@H]([C@H](C)C[C@@H]2CC[C@@H](OCCO)[C@H](OC)C2)CC(=O)[C@H](C)/C=C(\C)[C@@H](O)[C@@H](OC)C(=O)[C@H](C)C[C@H](C)/C=C/C=C/C=C/1C [Everolimus] + C[C@]1(O)C[C@@H](c2nc(-c3ccc4ccc(-c5ccccc5)nc4c3)c3c(N)nccn32)C1 [Linsitinib] (partner 1 µM)
Summary of the method: as §1

| Cell Line | relative viability (Everolimus + Navitoclax; first compound 0.01 µM) | relative viability (Everolimus + Navitoclax; first compound 0.03162 µM) | relative viability (Everolimus + Navitoclax; first compound 0.1 µM) | relative viability (Everolimus + Navitoclax; first compound 0.3162 µM) | relative viability (Everolimus + Navitoclax; first compound 1 µM) | relative viability (Everolimus + Luminespib; first compound 0.01 µM) | relative viability (Everolimus + Luminespib; first compound 0.03162 µM) | relative viability (Everolimus + Luminespib; first compound 0.1 µM) | relative viability (Everolimus + Luminespib; first compound 0.3162 µM) | relative viability (Everolimus + Luminespib; first compound 1 µM) | relative viability (Everolimus + Foretinib; first compound 0.01 µM) | relative viability (Everolimus + Foretinib; first compound 0.03162 µM) | relative viability (Everolimus + Foretinib; first compound 0.1 µM) | relative viability (Everolimus + Foretinib; first compound 0.3162 µM) | relative viability (Everolimus + Foretinib; first compound 1 µM) | relative viability (Everolimus + Linsitinib; first compound 0.01 µM) | relative viability (Everolimus + Linsitinib; first compound 0.03162 µM) | relative viability (Everolimus + Linsitinib; first compound 0.1 µM) | relative viability (Everolimus + Linsitinib; first compound 0.3162 µM) | relative viability (Everolimus + Linsitinib; first compound 1 µM) |
| --- | --- | --- | --- | --- | --- | --- | --- | --- | --- | --- | --- | --- | --- | --- | --- | --- | --- | --- | --- | --- |
| HCC-15 | 0.691 | 0.629 | 0.512 | 0.637 | 0.512 | 0.45 | 0.449 | 0.368 | 0.387 | 0.191 | 1.15 | 1.03 | 1.01 | 0.964 | 0.985 | 0.787 | 0.777 | 0.692 | 0.739 | 0.653 |
| HCC-827 | 1.02 | 1.07 | 0.99 | 1.04 | 0.987 | 0.346 | 0.33 | 0.204 | 0.203 | 0.199 | 0.929 | 0.982 | 0.906 | 0.828 | 0.771 | 1.01 | 0.977 | 0.979 | 1 | 0.838 |
| HOP-62 | 0.997 | 0.875 | 0.862 | 0.786 | 0.948 | 0.918 | 0.853 | 0.782 | 0.919 | 0.926 | 0.903 | 0.835 | 0.776 | 0.731 | 0.779 | 0.669 | 0.603 | 0.477 | 0.607 | 0.449 |
| LC-2-ad | 0.339 | 0.245 | 0.284 | 0.245 | 0.236 | 1.17 | 1.05 | 0.832 | 1.08 | 0.892 | 0.741 | 0.659 | 0.703 | 0.674 | 0.693 | 0.75 | 0.744 | 0.781 | 0.766 | 0.702 |
